Data set [1] can be described thus: Photocytotoxicity against human MCF7 cells assessed as increase in production of radical oxygen species at 400 nM pretreated for 30 mins followed by 1.5 J/cm2 UV-light irradiation for 5 mins measured after 2 hrs by H2DCFDA dye based fluorescence assay relative to control. The format is functional.
Data set [2] is described as follows: Photocytotoxicity against human MCF7 cells assessed as increase in production of radical oxygen species at 400 nM pretreated for 30 mins followed by 1.5 J/cm2 UV-light irradiation for 5 mins measured after 6 hrs by H2DCFDA dye based fluorescence assay relative to control. The format is functional.
The subject of data set [3] is MCF7. The experiment in a line: Induction of mitochondrial fusion in human MCF7 cells at 400 nM irradiated with 1.5 J/cm2 UV-light measured after 6 hrs by Mitotracker orange CMTM-ROS/Nuclear green staining based confocal microscopic method. It counts as functional, cell-based.
Data set [4] deals with MCF7. The experiment in a line: Induction of lysosomal dysfunction in human MCF7 cells at 400 nM irradiated with 1.5 J/cm2 UV-light measured after 6 hrs by Lysotracker green DND staining based confocal microscopic method. The format is functional, cell-based.
The nature of data set [5]: Photocytotoxicity against human HT-29 cells assessed as reduction in cell survival irradiated with 1.5 J/cm2 UV-light for 5 mins measured after 48 hrs by MTT assay. It counts as functional, cell-based. As to conditions: HT-29, light or radiation study. For orientation: Tetrazolium assays rely on reduction of a dye to a coloured formazan, in cell work by metabolically active cells.

Data set [6] in a line: Photocytotoxicity against human HeLa cells assessed as reduction in cell survival irradiated with 1.5 J/cm2 UV-light for 5 mins measured after 48 hrs by MTT assay. The format is functional, cell-based. Conditions: light or radiation study.
Data set [7] in a line: Dark toxicity against human HeLa cells assessed as reduction in cell survival measured after 30 mins by MTT assay. The format is cell-based.
The nature of data set [8]: Selectivity index, ratio of CC50 for cytotoxicity against human HeLa cells to EC50 for photocytotoxicity against human HeLa cells. The format is toxicity, cell-based. As to conditions: read-out: Ratio CC50/EC50.
Data set [9] is described as follows: Dark toxicity against human HT-29 cells assessed as reduction in cell survival measured after 30 mins by MTT assay. It counts as cell-based.
Data set [10] in a line: Photocytotoxicity against human MCF7 cells assessed as reduction in cell survival irradiated with 1.5 J/cm2 UV-light for 5 mins measured after 48 hrs by MTT assay. The format is functional, cell-based. Conditions: MCF7, light or radiation study.
Data set [11] can be described thus: Dark toxicity against human MCF7 cells assessed as reduction in cell survival measured after 30 mins by MTT assay. The format is cell-based.
A short description of data set [12]: Selectivity index, ratio CC50 for cytotoxicity against human MCF7 cells to EC50 for photocytotoxicity against human MCF7 cells. It counts as toxicity, cell-based. Conditions: read-out: Ratio CC50/EC50.
Data set [13] is described as follows: Induction of singlet oxygen photogeneration in aqueous acetonitrile solution of ADPA assessed as photobleaching of anthracene absorption upon irradiation at 2.3 10^-5M at 315 nanometer after 1 hr by UV absorption method. The format is physicochemical. Conditions: buffer.
In data set [14] the test system is MCF7. The experiment in a line: Dark toxicity against human MCF7 cells assessed as increase in production of radical oxygen species at 4 uM after 2 hrs by H2DCFDA dye based fluorescence assay. The format is cell-based. As to conditions: mcf7, 2 h.
Data set [15] is described as follows: Induction of apoptosis in human MCF7 cells assessed as early apoptotic cells at photocytotoxic EC50 irradiated with 1.5 J/cm2 UV-light measured after 6 hrs by 7-AAD/PE annexin V staining based FACS analysis (reference value: 17 %). The format is functional. On the technique in general: Flow cytometry measures light scatter and fluorescence of single cells or particles in a stream.

Data set [16] can be described thus: Induction of mitochondrial dysfunction in human MCF7 cells at 2 uM measured after 20 mins under dark condition by Mitotracker orange CMTM-ROS/Nuclear green staining based confocal microscopic method. It counts as cell-based. As to conditions: mcf7, 20 min.
Data set [17] can be described thus: Induction of lysosomal dysfunction in human MCF7 cells at 2 uM measured after 20 mins under dark condition by Lysotracker green DND staining based confocal microscopic method. It counts as cell-based. Conditions: mcf7, 20 min.
Data set [18] can be described thus: Induction of singlet oxygen sensitization in aqueous acetonitrile solution irradiated with laser flash photolysis assessed as signal intensity absorbance at 610 nanometer by spectroscopic method. It counts as physicochemical. Conditions: buffer.
Data set [19] can be described thus: Induction of singlet oxygen sensitization in aqueous acetonitrile solution irradiated with laser flash photolysis assessed as signal intensity absorbance at 355 nanometer by spectroscopic method. Conditions: buffer. The format is physicochemical.
The nature of data set [20]: Selectivity index, ratio CC50 for cytotoxicity against human HT-29 cells to EC50 for photocytotoxicity against human HT-29 cells. It counts as toxicity, cell-based. Conditions: read-out: Ratio CC50/EC50.
Data set [21] in a line: Photocytotoxicity against human MCF7 cells assessed as increase in production of radical oxygen species at 4 uM pretreated for 30 mins followed by 1.5 J/cm2 UV-light irradiation for 5 mins measured after 2 hrs by H2DCFDA dye based fluorescence assay relative to control. The format is functional.
Data set [22] relates to MCF7. The experiment in a line: Dark toxicity against human MCF7 cells assessed as increase in production of radical oxygen species at 1 to 4 uM after 2 hrs by H2DCFDA dye based fluorescence assay. The format is cell-based. Conditions: mcf7, 2 h.
Data set [23] is described as follows: Induction of singlet oxygen sensitization in aqueous acetonitrile solution irradiated with laser flash photolysis assessed as signal intensity absorbance at 630 nanometer by spectroscopic method. The format is physicochemical. As to conditions: buffer.
Data set [24] in a line: Induction of apoptosis in human MCF7 cells assessed as late apoptotic cells at photocytotoxic EC50 irradiated with 1.5 J/cm2 UV-light measured after 6 hrs by 7-AAD/PE annexin V staining based FACS analysis. It counts as functional.
Data set [25] is described as follows: Induction of apoptosis in human MCF7 cells assessed as necrotic cells at photocytotoxic EC50 irradiated with 1.5 J/cm2 UV-light measured after 6 hrs by 7-AAD/PE annexin V staining based FACS analysis. The format is functional.
Data set [26] concerns MCF7. The experiment in a line: Induction of mitochondrial dysfunction in human MCF7 cells assessed as clustering and swelling in location at 2 uM irradiated with 1.5 J/cm2 UV-light measured after 20 to 120 mins by Mitotracker orange CMTM-ROS/Nuclear green staining based confocal microscopic method. It counts as functional, cell-based.
Data set [27] has as its system MCF7. The experiment in a line: Induction of mitochondrial dysfunction in human MCF7 cells assessed as accumulation of mitochondrial signal at perinuclear level at 2 uM irradiated with 1.5 J/cm2 UV-light measured after 20 to 120 mins by Mitotracker orange CMTM-ROS/Nuclear green staining based confocal microscopic method. It counts as functional, cell-based.
Data set [28] deals with MCF7. The experiment in a line: Induction of lysosomal dysfunction in human MCF7 cells at 2 uM irradiated with 1.5 J/cm2 UV-light measured after 20 mins by Lysotracker green DND staining based confocal microscopic method. The format is functional, cell-based.
Data set [29] deals with MCF7. The experiment in a line: Induction of lysosomal dysfunction in human MCF7 cells at 2 uM irradiated with 1.5 J/cm2 UV-light measured after 2 hrs by Lysotracker green DND staining based confocal microscopic method. It counts as functional, cell-based.
Data set [30] deals with MCF7. The experiment in a line: Induction of lysosomal membrane impairment in human MCF7 cells assessed as increase in dye accumulation in cytoplasm at 2 uM irradiated with 1.5 J/cm2 UV-light measured after 20 mins by Lysotracker green DND staining based confocal microscopic method. It counts as functional, cell-based.

Each structure is given as a SMILES string. Calls of active or inactive are those of the source. The rule behind the calls is not given here.

As to `CCCCCCCCCCCCCC(=O)O[C@@H]1[C@@H](C)[C@@]2(O)[C@@H](C=C(CO)C[C@]3(O)C(=O)C(C)=C[C@@H]23)[C@@H]2C(C)(C)[C@]12OC(C)=O` [PHORBOL MYRISTATE ACETATE], the values for the Activity in data set [1] and in [2] were 120% and 420%, respectively. Further, the result in the data set on MCF7 [3] and with MCF7 [4] was Active.

As a reminder, the EC50 is the concentration giving half of the maximal effect. Broadly, the CC50 is the concentration at which the toxic effect on the cells reaches its halfway point. For `Cn1c(C(N)=O)cc2c1-c1nc(N)ncc1CCC2`, the concentration for a half-maximal effect (EC50) in [5] is more than 100000 nM; in data set [6], 8750 nM; in data set [10] it was 66000 nM. The 50% cytotoxic concentration (CC50) at 0.5 h in [7], in data set [9] and in data set [11] was more than 100000 nM throughout. Besides, the selectivity ratio in data set [8] is more than 11; in data set [12], more than 1.5. Besides, the Activity entry is recorded as “Active” in [13]; “Non-Toxic” in the data set on MCF7 [14]; 22% in data set [15]; “Non-Toxic” in data set [16]; “Non-Toxic” in data set [17]; 0.0146 in data set [18]. For the same molecule, the Activity in data set [19] is 0.012.

As to `CCOC(=O)c1cc2c(n1Cc1ccc(OC)cc1)-c1nc(Nc3ccccc3)ncc1CCC2`, the half-maximal effective concentration (EC50) was determined as 70 nM in data set [5], 180 nM in [6] and 860 nM in [10]. Besides, the CC50 at 0.5 h in data set [7], in data set [9] and in [11] was more than 100000 nM throughout. Further, the figures for the selectivity ratio in data set [8], in data set [20] and in [12] were more than 559, more than 1470 and more than 117, respectively.

As to `COc1ccc(Cn2c(C(N)=O)cc3c2-c2nc(N)ncc2CCC3)cc1`, the EC50 in data set [5] turned out to be 2000 nM; in data set [6], 1140 nM; in data set [10] it was 3260 nM. Moreover, the CC50 at 0.5 h in [7], in [9] and in data set [11] was more than 100000 nM in each case. The selectivity ratio is more than 88 in [8], more than 50 in [20] and more than 31 in data set [12].

`CCOC(=O)c1cc2c(n1Cc1ccc(OC)cc1)-c1nc(NC3CCCCC3)ncc1CCC2`: the half-maximal effective concentration (EC50) came out at 140 nM in data set [5], 70 nM in [6] and 110 nM in data set [10]. The CC50 at 0.5 h in data set [7], in data set [9] and in [11] was more than 100000 nM each time. Moreover, the selectivity ratio in data set [8] was more than 1360; in [20], more than 735; in data set [12] it was more than 952.

Regarding `CCOC(=O)c1cc2c(n1Cc1ccccc1)-c1nc(NC3CCCCC3)ncc1CCC2`, the EC50 was determined as 80 nM in data set [5], 60 nM in data set [6] and 100 nM in data set [10]. Besides, the half-maximal cytotoxic concentration (CC50) at 0.5 h in [7], in data set [9] and in data set [11] was more than 100000 nM in each case. Moreover, the values for the selectivity ratio in [8], in data set [20] and in data set [12] were more than 1670, more than 1240 and more than 1050, respectively. The Activity in data set [21] is 198%; in the data set on MCF7 [22], “Non-Toxic”.

In the case of `NC(=O)c1cc2c(n1Cc1ccccc1)-c1nc(N)ncc1CCC2`, the EC50 worked out at 2170 nM in [5], 2090 nM in [6] and 3690 nM in [10]. Moreover, the CC50 at 0.5 h in data set [7], in data set [9] and in [11] was more than 100000 nM each time. Further, the selectivity ratio is more than 48 in [8], more than 46 in data set [20] and more than 27 in data set [12].

Take `CCOC(=O)c1cc2c(n1Cc1ccc(OC)cc1)-c1nc(N)ncc1CCC2`: the concentration giving a half-maximal response (EC50) amounted to 290 nM in [5], 320 nM in [6] and 670 nM in data set [10]. In addition, the CC50 at 0.5 h in data set [7], in data set [9] and in data set [11] was more than 100000 nM throughout. Also, the selectivity ratio is more than 312 in data set [8], more than 348 in data set [20] and more than 150 in data set [12].

For `CCOC(=O)c1cc2c(n1C)-c1nc(NC3CCCCC3)ncc1CCC2`, the results for the EC50 in data set [5], in data set [6] and in [10] were 90 nM, 80 nM and 80 nM, respectively. For the same molecule, the CC50 at 0.5 h in [7], in [9] and in data set [11] was more than 100000 nM each time. In addition, the selectivity ratio in data set [8] was more than 1270; in [20], more than 1110; in data set [12] it was more than 1250. Further, the Activity is 0.052 in data set [23]; “Active” in data set [13]; 222% in data set [21]; 47% in data set [15]; 13% in data set [24]; 11% in data set [25]. For the same molecule, the Activity entry in data set [16] is on record as “Non-Toxic”; in [17], “Non-Toxic”; in data set [19], 0.012; in the data set on MCF7 [22], “Non-Toxic”. The outcome in the data set with MCF7 [26], with MCF7 [27], with MCF7 [28], with MCF7 [29] and in the data set with MCF7 [30] was Active.

For the molecule `NC(=O)c1cc2c(n1Cc1ccccc1)-c1nc(Nc3ccccc3)ncc1CCC2`, the EC50 in data set [5] was determined as 360 nM; in data set [6], 250 nM; in data set [10], 1040 nM. In addition, the CC50 at 0.5 h in data set [7] was more than 100000 nM; in [9] it was more than 100000 nM; in data set [11], 66500 nM. Besides, the selectivity ratio in data set [8] was more than 397; in [20], more than 281; in data set [12], 64.
